Assay results reported in patent publication US10857236B2, “Sustained release nanocomposite, a process for producing the same and use thereof” (SZEGEDI TUDOMÁNYEGYETEM, priority 2015, dated 2020).

Assays:
[1] = system: somatosensory evoked potentials (SEPs); experiment: in vivo amplitudes of somatosensory evoked potentials after peripheral administration; set-up: species or system male Wistar rats; conditions: intraperitoneal administration, 300 mg/kg, n=5
Excerpt: The preparation of the corresponding composite (FIG. 1) was accomplished with the following parameters. […] At a neutral pH the compact structure of the protein offers an opportunity to enclose large amount of kynurenic acid. In the “heart shaped” conformation of the BSA, the hydrophobic parts directed inside the conformation can form hydrogen-bridge, hydrophobic, furthermore ππ interactions with the KYNA molecule. […] After the in vitro drug release experiments the KYNA permeability was investigated with the help of an in vitro blood-brain barrier model. […] The animal experiments were performed on male Wistar rats (300 g, n=30). During the tests the effect of the peripherally administered KYNA was investigated in the central nervous system.

[2] = stability study of KYNA in MQ with and without 150 mM NaCl and in buffer
Description: New types of nanocomposites have been prepared within physiological conditions, in the nano-size range for the purpose of crossing the pharmaceutically active ingredients through the blood-brain barrier. […] The amount of the material constituting the composites, than the conditions of the preparation were determined. Stability studies were performed for the active ingredients by ensuring various conditions (pH=3 to 8 in physiological solution and without said physiological solution, in both phosphate and HEPES buffers). […]
The release tests were made in case of KYNA in PBS buffer at pH=7.4. (physiological solution). […]

[3] = in vitro drug release in Franz cell (vertical diffusion cell), kinetic models; format: physicochemical
Description: FIG. 7: A schematic figure of the Franz-cell (vertical diffusion cell) with which the in vitro drug release experiments were carried out. […] The active ingredient release tests were made at two temperatures: at 25 and 37.5° C. (FIGS. 7 and 8).

[4] = KYNA permeability in in vitro blood-brain barrier model; format: in vitro ADME, rat; conditions: Wistar, rat, 20 μM KYNA final concentration, corrected for empty filters, read-out: permeability coefficient Pe
Description: (§1) The permeability of KYNA through the blood-brain barrier from BSA/KYNA/PAH nanocapsules was determined by means of an in vitro blood-brain barrier model. The description of the model is the following: microvessel rat brain endothelial cells were isolated from 2 to 3 weeks old Wistar animals by means of a method described earlier (Wilhelm és munkatársai, 2011). After the removal of the meninges, the brain tissue was dissectioned to small pieces, then it was digested by type 2 collagenase and collagenase/dispase, finally it was centrifuged on percoll gradient. The microvessel fragments were plated on collagenIV/fibronectin-coated Petri dishes and were cultured in DMEM/F12 in the presence of plasma serum and growth factors. […]
(§2) From these samples the concentration of KYNA was determined using an Agilent 1100 HPLC-MS system (Agilent Technologies, Santa Clara, Calif., USA).
(§3) To calculate the permeability coefficient the following formulae were applied: PappdQ/(dT×A×C0), wherein dQ stands for the crossed amount of the material, dT stands for the incubation period of time (1 hour), A stands for the surface of the filter and C0 stands for the starting concentration (20 μM). The values thus calculated were compared to the values measured on empty (not containing cells) filters according to the following method: […]).

[5] = system: microvessel rat brain endothelial cells; experiment: as above; format: in vitro ADME; conditions: 20 μM KYNA final concentration, 1 hour, corrected for empty filters
Description: as §1, §2, §3

[6] = DOPA containing composites, 25° C.
[7] = DOPA containing composites, 37.5° C.
[8] = KYNA containing composites, 25° C.
[9] = KYNA containing composites, 37.5° C.
[10] = IBU containing composites, 25° C.
[11] = IBU containing composites, 37.5° C.

Nc1ccccc1C(=O)C[C@H](N)C(=O)O [L-KYN, L-kynurenin]
no significant change: change of amplitude of somatosensory evoked potentials [1]

O=C(O)c1cc(=O)c2ccccc2[nH]1 [KYNA, kynurenic acid]
4.9 * 10^−3 s^−1/2: Release rate, diffusion controlled, Higuchi kd [3, 8]
72 h: demonstrated stability until ([2]; PBS buffer at pH=7.4 (physiological solution), release tests of KYNA)
6.9 * 10^−0 s^−1/2: Release rate, diffusion controlled, Higuchi kd [3, 6]
stable: stability of KYNA ([2]; HEPES (150 mM NaCl), 0 h) | stability of KYNA ([2]; pH 3 (MQ + 150 mM NaCl), 0 h) | stability of KYNA ([2]; pH 3 (MQ + 150 mM NaCl), 24 h) | stability of KYNA ([2]; pH 3 (MQ + 150 mM NaCl), 48 h) | stability of KYNA ([2]; pH 3 (MQ + 150 mM NaCl), 72 h) | stability of KYNA ([2]; pH 3 (MQ), 0 h) | stability of KYNA ([2]; pH 3 (MQ), 24 h) | stability of KYNA ([2]; pH 3 (MQ), 48 h) | stability of KYNA ([2]; pH 3 (MQ), 72 h) | stability of KYNA ([2]; pH 4 (MQ + 150 mM NaCl), 0 h) | stability of KYNA ([2]; pH 4 (MQ + 150 mM NaCl), 24 h) | stability of KYNA ([2]; pH 4 (MQ + 150 mM NaCl), 48 h) | stability of KYNA ([2]; pH 4 (MQ + 150 mM NaCl), 72 h) | stability of KYNA ([2]; pH 4 (MQ), 0 h) | stability of KYNA ([2]; pH 4 (MQ), 24 h) | stability of KYNA ([2]; pH 4 (MQ), 48 h) | stability of KYNA ([2]; pH 5 (MQ + 150 mM NaCl), 0 h) | stability of KYNA ([2]; pH 5 (MQ + 150 mM NaCl), 24 h) | stability of KYNA ([2]; pH 5 (MQ), 0 h) | stability of KYNA ([2]; pH 5 (MQ), 24 h) | stability of KYNA ([2]; pH 5 (MQ), 48 h) | stability of KYNA ([2]; pH 5 (MQ), 72 h) | stability of KYNA ([2]; pH 6 (MQ + 150 mM NaCl), 0 h) | stability of KYNA ([2]; pH 6 (MQ + 150 mM NaCl), 24 h) | stability of KYNA ([2]; pH 6 (MQ + 150 mM NaCl), 48 h) | stability of KYNA ([2]; pH 6 (MQ + 150 mM NaCl), 72 h) | stability of KYNA ([2]; pH 6 (MQ), 0 h) | stability of KYNA ([2]; pH 6 (MQ), 24 h) | stability of KYNA ([2]; pH 6 (MQ), 48 h) | stability of KYNA ([2]; pH 7 (MQ + 150 mM NaCl), 0 h) | stability of KYNA ([2]; pH 7 (MQ + 150 mM NaCl), 24 h) | stability of KYNA ([2]; pH 7 (MQ + 150 mM NaCl), 48 h) | stability of KYNA ([2]; pH 7 (MQ + 150 mM NaCl), 72 h) | stability of KYNA ([2]; pH 7 (MQ), 0 h) | stability of KYNA ([2]; pH 7 (MQ), 24 h) | stability of KYNA ([2]; pH 7 (MQ), 48 h) | stability of KYNA ([2]; pH 8 (MQ + 150 mM NaCl), 0 h) | stability of KYNA ([2]; pH 8 (MQ + 150 mM NaCl), 24 h) | stability of KYNA ([2]; pH 8 (MQ + 150 mM NaCl), 48 h) | stability of KYNA ([2]; pH 8 (MQ + 150 mM NaCl), 72 h) | stability of KYNA ([2]; pH 8 (MQ), 0 h) | stability of KYNA ([2]; pH 8 (MQ), 24 h) | stability of KYNA ([2]; pH 8 (MQ), 48 h) | stability of KYNA ([2]; pH 8 (MQ), 72 h)
unstable: stability of KYNA ([2]; HEPES (150 mM NaCl), 24 h) | stability of KYNA ([2]; HEPES (150 mM NaCl), 48 h) | stability of KYNA ([2]; HEPES (150 mM NaCl), 72 h) | stability of KYNA ([2]; HEPES (150 mM NaCl), 96 h) | stability of KYNA ([2]; pH 3 (MQ + 150 mM NaCl), 96 h) | stability of KYNA ([2]; pH 3 (MQ), 96 h) | stability of KYNA ([2]; pH 4 (MQ + 150 mM NaCl), 96 h) | stability of KYNA ([2]; pH 4 (MQ), 72 h) | stability of KYNA ([2]; pH 4 (MQ), 96 h) | stability of KYNA ([2]; pH 5 (MQ + 150 mM NaCl), 48 h) | stability of KYNA ([2]; pH 5 (MQ + 150 mM NaCl), 72 h) | stability of KYNA ([2]; pH 5 (MQ + 150 mM NaCl), 96 h) | stability of KYNA ([2]; pH 5 (MQ), 96 h) | stability of KYNA ([2]; pH 6 (MQ + 150 mM NaCl), 96 h) | stability of KYNA ([2]; pH 6 (MQ), 72 h) | stability of KYNA ([2]; pH 6 (MQ), 96 h) | stability of KYNA ([2]; pH 7 (MQ + 150 mM NaCl), 96 h) | stability of KYNA ([2]; pH 7 (MQ), 72 h) | stability of KYNA ([2]; pH 7 (MQ), 96 h) | stability of KYNA ([2]; pH 8 (MQ + 150 mM NaCl), 96 h) | stability of KYNA ([2]; pH 8 (MQ), 96 h)
0.0004 s⁻¹: Release rate, not depending on the concentration, zero-order kd [3, 8]
1.2 * 10^−2 s^−1/2: Release rate, diffusion controlled, Higuchi kd [3, 9]
96 h: demonstrated stability until ([2]; PBS buffer at pH=7.4 (physiological solution), release tests of IBU)
0.0079 s⁻¹: Release rate, depending on the concentration, first-order kd [3, 6]
7.0 * 10^−0 s^−1/2: Release rate, diffusion controlled, Higuchi kd [3, 7]
already starts in the first hours: degrading of KYNA as a result of the buffers ([2]; in buffer)
3.71 ×10⁻⁶ cm/s: Papp at 1 h, 20 µM [4]
no significant change: change of amplitude of somatosensory evoked potentials [1]
0.001 s⁻¹: Release rate, not depending on the concentration, zero-order kd [3, 9]
0.0098 s⁻¹: Release rate, depending on the concentration, first-order kd [3, 7]
0.0015 s⁻¹: Release rate, depending on the concentration, first-order kd [3, 8]
Higuchi model: kinetic model that characterizes / best fits the release ([3]; in vitro release profiles)
0.0062 s⁻¹: Release rate, not depending on the concentration, zero-order kd [3, 7]
0.63 s⁻¹: Release rate, not depending on the concentration, zero-order kd [3, 6]

CC(C)Cc1ccc(C(C)C(=O)O)cc1 (stereo not shown) [IBU, ibuprofen]
0.0064 s⁻¹: Release rate, depending on the concentration, first-order kd [3, 10]
0.77 s⁻¹: Release rate, not depending on the concentration, zero-order kd [3, 11]
8.7 * 10^−0 s^−1/2: Release rate, diffusion controlled, Higuchi kd [3, 11]
5.6 * 10^−0 s^−1/2: Release rate, diffusion controlled, Higuchi kd [3, 10]
0.5 s⁻¹: Release rate, not depending on the concentration, zero-order kd [3, 10]
0.011 s⁻¹: Release rate, depending on the concentration, first-order kd [3, 11]

O=C([O-])c1ccccc1-c1c2ccc(=O)cc-2oc2cc([O-])ccc12.[Na+].[Na+] [Na-fluoresceine]
2.96*10^−6 cm/s: permeability coefficient Pe [5]

NCCc1ccc(O)c(O)c1 [DOPA, dopamine]
72 h: demonstrated stability until ([2]; pH 7.4)
